Like-named read-outs stand apart in the source and are kept apart here.
Legend:
[1] = molecular target: T1, NAMPT (Homo sapiens, UniProt P43490); experiment: Biochemical inhibition assay: NAMPT enzymatic reaction, NMN quantified by mass spectrometry
T1 construct: His tag; host or cells: E. coli
Protocol: Biochemical Inhibition Assay
NAMPT Protein Purification
Recombinant His-tagged NAMPT was produced in E. coli cells, purified over a Ni column, and further purified over a size-exclusion column by XTAL Biostructures.
The NAMPT Enzymatic Reaction
The NAMPT enzymatic reactions were carried out in Buffer A (50 mM Hepes pH 7.5, 50 mM NaCl, 5 mM MgCl2, and 1 mM THP) in 96-well V-bottom plates. The compound titrations were performed in a separate dilution plate by serially diluting the compounds in DMSO to make a 100× stock. […] The compound and enzyme mix was incubated for 15 minutes at room temperature, then 10 μL of 10× substrate and co-factors in Buffer A were added to the test well to make a final concentration of 1 μM NAM, 100 μM 5-Phospho-D-ribose 1-diphosphate (PRPP), and 2.5 mM Adenosine 5′-triphosphate (ATP). The reaction was allowed to proceed for 30 minutes at room temperature, then was quenched with the addition of 11 μL of a solution of formic acid and L-Cystathionine to make a final concentration of 1% formic acid and 10 μM L-Cystathionine. Background and signal strength was determined by addition (or non-addition) of a serial dilution of NMN to a pre-quenched enzyme and cofactor mix.
A mass spectrometry-based assay was used to measure the NAMPT reaction product (NMN) and the internal control (L-Cystathionine). NMN and L-Cystathionine were detected using the services of Biocius Lifesciences with the RapidFire system. In short, the NMN and L-Cystathionine are bound to a graphitic carbon cartridge in 0.1% formic acid, eluted in 30% acetonitrile buffer, and injected into a Sciex 4000 mass spectrometer. The components of the sample were ionized with electrospray ionization and the positive ions were detected. […] The fragments are quantified and the analyzed by the following method.
First the NMN signal is normalized to the L-Cystathionine signal by dividing the NMN signal by the L-Cystathionine signal for each well. The signal from the background wells are averaged and subtracted from the test plates. […] IC50s are Determined Using Excel and this Formula.

[2] = tested on: A2780 cells; experiment: In-vitro cell proliferation assay (SRB), A2780 cells; assay type: cell-based; details: Homo sapiens, A2780, 72 h
Protocol: In-Vitro Cell Proliferation Assay
After overnight incubation at 37° C. and 5% CO2, the compound titrations were performed in a separate dilution plate by serially diluting the compounds in DMSO to make a 1000× stock. The compounds were then further diluted to 10× final concentration in culture media, whereupon 20 μL of each dilution was added to the plated cells with controls (e.g. DMSO and blank) to make a final volume of 200 μL. The final DMSO concentration in each well was 0.1%. The plates were then incubated for 72 hours at 37° C. in a 5% CO2 incubator. The number of viable cells was then assessed using sulforhodamine B (SRB) assay. Cells were fixed at 4° C. for 1 hour with the addition of 50 μL 30% trichloroacetic acid (TCA) to make a final concentration of 6% TCA. The plates were washed four times with H2O and allowed to dry for at least 1 hour, whereupon 100 μL of a 4% SRB in 1% acetic acid solution was added to each well and incubated at room temperature for at least 30 minutes. The plates were then washed three times with 1% acetic acid, dried, and treated with 100 μL of 10 mM Tris-Base solution. The plates were then read in a microplate reader at an absorbance of 570 nm. Background was generated on a separate plate with media only.
Method for Determining % Inhibition
First, the signals from the background plate are averaged, then the background was subtracted from the test plates.
wherein X denotes the compound concentration 1, Y denotes the compound concentration 2, XX denotes the % inhibition at compound concentration 1 (X), and YY denotes the % inhibition at compound concentration 2 (Y).

[3] = NAMPT enzymatic assay, read-out: Biochem IC50
[4] = A2780 cells, 72 hours, SRB, read-out: A2780 IC50

T1 sequence (P43490 whole entry): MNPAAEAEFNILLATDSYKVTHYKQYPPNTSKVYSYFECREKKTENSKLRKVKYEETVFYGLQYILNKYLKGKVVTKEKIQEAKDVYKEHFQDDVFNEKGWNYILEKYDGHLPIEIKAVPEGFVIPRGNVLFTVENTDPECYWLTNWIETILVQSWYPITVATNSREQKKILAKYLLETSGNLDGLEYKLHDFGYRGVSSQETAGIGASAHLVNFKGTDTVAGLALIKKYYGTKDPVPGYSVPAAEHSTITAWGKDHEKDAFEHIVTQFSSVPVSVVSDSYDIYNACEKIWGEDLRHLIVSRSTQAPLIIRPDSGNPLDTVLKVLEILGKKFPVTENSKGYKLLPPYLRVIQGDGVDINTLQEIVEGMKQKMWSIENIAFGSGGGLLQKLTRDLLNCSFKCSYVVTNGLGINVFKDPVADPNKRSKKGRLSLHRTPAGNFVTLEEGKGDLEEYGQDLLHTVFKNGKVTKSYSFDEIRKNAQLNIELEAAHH

O=C(NCc1ccc(S(=O)(=O)c2ccc(C(F)(F)F)cc2C(F)(F)F)cc1)c1cnc2nccn2c1
IC50 [1, 3]: 0.0188 µM | IC50 [2, 4]: 0.0964 µM

O=C(NCc1ccc(S(=O)(=O)c2ccc(C(F)(F)F)cc2OCC(F)(F)F)cc1)c1cc2cnccc2[nH]1
IC50 [1, 3]: 0.009 µM | IC50 [2, 4]: 0.001 µM

O=C(NCc1ccc(S(=O)(=O)c2cc(C(F)(F)F)ccc2OCc2ccccc2)cc1)c1cnc2nccn2c1
IC50 [1, 3]: 0.0332 µM | IC50 [2, 4]: 0.1 to 1 µM

O=C(NCc1ccc(S(=O)(=O)c2cc(C(F)(F)F)ccc2OCc2ccccc2)cc1)c1cc2cnccc2[nH]1
IC50 [1, 3]: 0.13 µM | IC50 [2, 4]: 0.0259 µM

CN(C)C(=O)c1ccccc1S(=O)(=O)c1ccc(CNC(=O)c2cc3ccncc3s2)cc1
IC50 [1, 3]: 0.1 to 1 µM | IC50 [2, 4]: 0.1 to 1 µM

CN(C)C(=O)c1ccccc1S(=O)(=O)c1ccc(CNC(=O)c2cc3ccncc3o2)cc1
IC50 [1, 3]: 0.1 to 1 µM | IC50 [2, 4]: 1 to 10 µM

CCOCc1ccccc1S(=O)(=O)c1ccc(CNC(=O)c2cc3ccncc3o2)cc1
IC50 [1, 3]: 0.0133 µM | IC50 [2, 4]: 0.026 µM

CCOCc1ccccc1S(=O)(=O)c1ccc(CNC(=O)c2cnc3nccn3c2)cc1
IC50 [1, 3]: 0.0037 µM | IC50 [2, 4]: 0.0396 µM

CCOCc1ccccc1S(=O)(=O)c1ccc(CNC(=O)c2cc3cnccc3[nH]2)cc1
IC50 [1, 3]: 0.0185 µM | IC50 [2, 4]: 0.0067 µM

CCOCc1ccccc1S(=O)(=O)c1ccc(CNC(=O)c2cnc3[nH]ncc3c2)cc1
IC50 [1, 3]: 0.052 µM | IC50 [2, 4]: 0.0612 µM

CNS(=O)(=O)c1ccccc1S(=O)(=O)c1ccc(CNC(=O)c2cnc3nccn3c2)cc1
IC50 [1, 3]: 0.0304 µM | IC50 [2, 4]: 1 to 10 µM

CNS(=O)(=O)c1ccccc1S(=O)(=O)c1ccc(CNC(=O)c2cc3ccncc3o2)cc1
IC50 [1, 3]: 0.0513 µM | IC50 [2, 4]: 0.074 µM

O=C(NCc1ccc(S(=O)(=O)c2ccccc2CN2CCOCC2)cc1)c1cnc2[nH]ncc2c1
IC50 [1, 3]: 0.0694 µM | IC50 [2, 4]: 0.0465 µM

O=C(NCc1ccc(S(=O)(=O)c2ccccc2CN2CCOCC2)cc1)c1cnc2nccn2c1
IC50 [1, 3]: 0.0145 µM | IC50 [2, 4]: 0.1 to 1 µM

O=C(NCc1ccc(S(=O)(=O)c2ccccc2OC(F)(F)F)cc1)c1cc2ccncc2o1
IC50 [1, 3]: 0.0086 µM | IC50 [2, 4]: 0.0146 µM

O=C(NCc1ccc(S(=O)(=O)c2ccccc2C(F)(F)F)cc1)c1cnc2nccn2c1
IC50 [1, 3]: 0.01 µM | IC50 [2, 4]: 0.1 to 1 µM

O=C(NCc1ccc(S(=O)(=O)c2ccccc2C(F)(F)F)cc1)c1cc2ccncc2o1
IC50 [1, 3]: 0.0194 µM | IC50 [2, 4]: 0.0593 µM

O=C(NCc1ccc(S(=O)(=O)c2cccc(C(F)(F)F)c2Cl)cc1)c1cc2ccncc2o1
IC50 [1, 3]: 0.0184 µM | IC50 [2, 4]: 0.0279 µM

O=C(NCc1ccc(S(=O)(=O)c2cccc(C(F)(F)F)c2Cl)cc1)c1cnc2nccn2c1
IC50 [1, 3]: 0.0024 µM | IC50 [2, 4]: 0.0246 µM

O=C(NCc1ccc(S(=O)(=O)c2cccc(C(F)(F)F)c2Cl)cc1)c1cc2cnccc2[nH]1
IC50 [1, 3]: 0.0364 µM | IC50 [2, 4]: 0.0088 µM

O=C(NCc1ccc(S(=O)(=O)c2ccc(C(F)(F)F)cc2Cl)cc1)c1cc2cnccc2[nH]1
IC50 [1, 3]: 0.127 µM | IC50 [2, 4]: 0.0254 µM

O=C(NCc1ccc(S(=O)(=O)c2ccc(C(F)(F)F)cc2Cl)cc1)c1cnc2nccn2c1
IC50 [1, 3]: 0.0184 µM | IC50 [2, 4]: 0.0644 µM

O=C(NCc1ccc(S(=O)(=O)c2cc(CO)ccc2Cl)cc1)c1cc2cnccc2[nH]1
IC50 [1, 3]: 0.0083 µM | IC50 [2, 4]: 0.0262 µM

O=C(NCc1ccc(S(=O)(=O)c2cc(OC(F)(F)F)ccc2Cl)cc1)c1cnc2nccn2c1
IC50 [1, 3]: 0.008 µM | IC50 [2, 4]: 0.0125 µM

O=C(NCc1ccc(S(=O)(=O)c2cc(C(F)(F)F)ccc2Cl)cc1)c1cnc2nccn2c1
IC50 [1, 3]: 0.007 µM | IC50 [2, 4]: 0.0141 µM

O=C(NCc1ccc(S(=O)(=O)c2cc(C(F)(F)F)ccc2Cl)cc1)c1cc2ccncc2o1
IC50 [1, 3]: 0.0139 µM | IC50 [2, 4]: 0.0141 µM

CC(C)Oc1cccc(S(=O)(=O)c2ccc(CNC(=O)c3cc4ccncc4s3)cc2)c1F
IC50 [1, 3]: 0.0047 µM | IC50 [2, 4]: 0.0066 µM

CC(C)Oc1cccc(S(=O)(=O)c2ccc(CNC(=O)c3ccc4nccn4c3)cc2)c1F
IC50 [1, 3]: 0.0078 µM | IC50 [2, 4]: 0.004 µM

O=C(NCc1ccc(S(=O)(=O)c2cccc(OC(F)(F)F)c2F)cc1)c1cc2ccncc2s1
IC50 [1, 3]: 0.0098 µM | IC50 [2, 4]: 0.0133 µM

O=C(NCc1ccc(S(=O)(=O)c2ccc(-n3cccn3)cc2F)cc1)c1cnc2[nH]ncc2c1
IC50 [1, 3]: 0.0389 µM | IC50 [2, 4]: 0.0344 µM

O=C(NCc1ccc(S(=O)(=O)c2ccc(-n3cccn3)cc2F)cc1)c1cc2ccncc2o1
IC50 [1, 3]: 0.0184 µM | IC50 [2, 4]: 0.008 µM

O=C(NCc1ccc(S(=O)(=O)c2ccc(-n3cccn3)cc2F)cc1)c1cnc2nccn2c1
IC50 [1, 3]: 0.0022 µM | IC50 [2, 4]: 0.019 µM

O=C(NCc1ccc(S(=O)(=O)c2ccc(C(F)(F)F)cc2C(F)(F)F)cc1)c1cc2ccncc2o1
IC50 [1, 3]: 0.053 µM | IC50 [2, 4]: 0.0637 µM

O=C(NCc1ccc(S(=O)(=O)c2ccc(C(F)(F)F)cc2C(F)(F)F)cc1)c1cc2cnccc2[nH]1
IC50 [1, 3]: 0.0401 µM | IC50 [2, 4]: 0.014 µM

O=C(NCc1ccc(S(=O)(=O)c2ccc(C(F)(F)F)cc2C(F)(F)F)cc1)c1ccc2nccn2c1
IC50 [1, 3]: 0.22 µM | IC50 [2, 4]: 0.0532 µM

Cc1c(Cl)cccc1S(=O)(=O)c1ccc(CNC(=O)c2cc3ccncc3s2)cc1
IC50 ([1]; Biochem IC50 uM): 0.0572 µM | IC50 ([2]; read-out: A2780 IC50 uM): 0.0071 µM

Cc1ccc(F)cc1S(=O)(=O)c1ccc(CNC(=O)c2cnc3nccn3c2)cc1
IC50 [1, 3]: 0.0027 µM | IC50 [2, 4]: 0.0351 µM

COc1ccc(C(C)(C)C)cc1S(=O)(=O)c1ccc(CNC(=O)c2cnc3[nH]ncc3c2)cc1
IC50 [1, 3]: 0.0456 µM | IC50 [2, 4]: 0.0216 µM

COc1ccc(C(C)(C)C)cc1S(=O)(=O)c1ccc(CNC(=O)c2cnc3nccn3c2)cc1
IC50 [1, 3]: 0.0098 µM | IC50 [2, 4]: 0.0077 µM

COc1ccc(C(C)(C)C)cc1S(=O)(=O)c1ccc(CNC(=O)c2cc3ccncc3o2)cc1
IC50 [1, 3]: 0.0218 µM | IC50 [2, 4]: 0.0101 µM

Cc1ccc(Cl)c(S(=O)(=O)c2ccc(CNC(=O)c3cc4cnccc4[nH]3)cc2)c1F
IC50 [1, 3]: 0.0065 µM | IC50 [2, 4]: 0.0071 µM

Cc1ccc(Cl)c(S(=O)(=O)c2ccc(CNC(=O)c3cc4ccncc4s3)cc2)c1F
IC50 [1, 3]: 0.0077 µM | IC50 [2, 4]: 0.0068 µM

O=C(NCc1ccc(S(=O)(=O)N2CCCCC2)cc1)c1cc2cnccc2[nH]1 [N-{[4-(piperidine-1-sulfonyl)phenyl]methyl}-1H-pyrrolo[3,2-c]pyridine-2-carboxamide]
IC50 ([2]; A2780 cells, 72 hours, SRB assay, read-out: A2780 IC50): 0.2 µM

O=C(NCc1ccc(S(=O)(=O)c2ccc(C(=O)N3CCCC3)cc2)cc1)c1cc2ccncc2o1 [N-{[4-({4-[(pyrrolidin-1-yl)carbonyl]benzene}sulfonyl)phenyl]methyl}furo[2,3-c]pyridine-2-carboxamide]
IC50 [2, 4]: 0.0014 µM

Reference: patent US12336981B2, “Compounds and compositions for the inhibition of NAMPT” (Valo Health, Inc., priority 2010, dated 2025)
